In patent US20180177891A1, “Nanoparticle-Based Antigen Specific Immunotherapy” (Midatech Limited, priority 2015, published 2018):
Where no end group is shown, it is not given here.

Legend:
Solubility tests = type: physicochemical
Procedure: Given the low incorporation of 10% C19-A3 peptide into GNPs (3-5%) using the 75% methanol-based preparation method, solubility tests were performed to determine the optimal solution for C19-A3 peptide conjugation to gold nanoparticles. […] Therefore, water-based GNP synthesis methods were developed using low (10%) or intermediate (35%) levels of methanol, and vivaspin centrifugation to remove any unbound peptide. GNPs containing 10% C19-A3 peptide and 10% glucose C2 (NP58) or 10% mannose C2 (NP61) were synthesised using a water-based (10% methanol) method (Table 12). HPLC analysis of peptide released from the C19-A3-GNPs following treatment with KCN solution (100 mM), confirmed 100% and 62% incorporation efficiency of C19-A3 peptide, with 31 and 19 peptides bound per GNP, for NP58 and NP61, respectively. An intermediate 35% methanol preparation method was also tested for synthesis of 10% C19-A3, 10% glucose C2 GNPs (NP63). HPLC analysis again confirmed high incorporation of C19-A3 peptide (67%), with 20 peptides bound per GNP.

[1] = system: OT-II (ovalbumin peptide (323-339) specific) CD4+ T cells; test: OT-II T cell proliferation in draining LN after intradermal injection; type: in vivo, C57BL/6 mice; details: 3 days later, flow cytometry
Procedure: PBS, ovalbumin peptide (323-339) or ovalbumin peptide (323-339) containing GNPs (NP167, NP168) were injected intradermally in C57BL/6 mice 24 h after i.v. administration of fluorescent cell trace violet (CTV)-labelled OT-II (ovalbumin peptide (323-339) specific) CD4+ T cells. 3 days later, draining LN cells were isolated and studied by flow cytometry. The presence of OT-II cells in the LN was shown by the appearance of cells of that are […] CD45.1^+Vα2^+ and high CTV fluorescence (right hand edge of square). Proliferation of OT-II cells was seen as dilution of the CTV fluorescence, bringing the cells progressively at each cell cycle into the blue box. The percentage of cells with the proliferation square is shown. […] Each plot represents the results from a different mouse.
PBS, ovalbumin peptide (323-339), or ovalbumin peptide (323-339) coupled GNPs (NP167, NP168) were administered intradermally to C57BL-6 mice, at the same time as i.v. administration of fluorescent cell trace violet (CTV) labelled OT-II (Ovalbumin peptide specific) CD4 positive T cells. Draining LN and spleen cells were harvested 3 days after ovalbumin (323-339) peptide administration, and studied by flow cytometry. Where fluorescent cells are seen but the level of fluorescence has been reduced, this implies that they have recognised their target peptide on APCs in that tissue and undergone cell division.

BDC-2.5 CD4+ T cells = test: BDC-2.5 CD4+ T cell proliferation in LNs and spleen after injection; type: in vivo, murine
Text: Increased proliferation is seen with GNPs coupled to antigen both in the draining and distant LN sites and spleen.
A similar in vivo protocol was designed, using fluorescently labelled indicator CD4^+ T cells (BDC-2.5, specific for chromograninA 342-355 found in pancreatic beta cells) and the peptide “BDC-2.5 mimotope” (a peptide of similar configuration to this epitope, that mimics the chromogranin A 342-355 peptide) coupled to GNPs linked to either mannose C2 or glucose C2.
A preliminary in vivo experiment was carried out using the murine BDC-2.5 mimotope peptide and fluorescently-labelled indicator CD4 T cell clones specific for this peptide described above. GNPs were given coupled to peptide (BDC-2.5 mimotope), IL-10, or both, and compared to blank GNPs of injected controls. […] This provides evidence that the cytokine travels with the GNPs to distant sites when complexed with GNPs, and in bioactive form. This is of enhanced efficiency compared to IL-10 alone.

[2] = system: OT-II (ovalbumin peptide (323-339) specific) CD4+ T cells; test: Accumulation of fluorescent cells in LN of CCR7−/− mice; type: in vivo; details: CCR7−/− compared to wildtype B6 mice
Procedure: In order to determine whether the injected peptide is carried to draining LNs in fluid phase or carried via migratory skin DCs, homozygous knockout mice for the chemokine receptor CCR7 (which mediates DC migration from skin) were treated in the same protocol as above.

[3] = system: Human immature monocyte derived dendritic cells (iDCs); test: DC maturation (CD80, HLA-DR expression, FACS); type: cell-based; details: subsequent stimulation with LPS
Procedure: Human immature monocyte derived dendritic cells (iDCs) were incubated with proinsulin C19-A3 coupled GNPs or without GNPs for 4 h. Thereafter, the GNPs were washed off and cells left overnight, either alone or in the presence of 100 ng/ml LPS. Overnight maturation of DCs was measured as increases of CD80 and HLA-DR expression using FACS.
(§1) However, IL-10-GNPs changed the ability of DCs to upregulate HLA-DR and activation molecules CD80 and CD25 upon stimulation with LPS.

[4] = system: Human immature monocyte derived dendritic cells (iDCs); test: Cytokine release by DCs after LPS (Luminex); type: cell-based
Procedure: iDCs were also incubated with proinsulin C19-A3 GNPs coupled to glucose (GNPgluc), with proinsulin C19-A3 GNPs coupled to mannose (GNPman), or without GNPs for 4 hrs. Thereafter, cells were washed and subsequently stimulated with 100 ng/ml LPS and left overnight. Supernatants were collected the next day and cytokine (IL-10, IL-12 and TNF) release by DCs measured using Luminex.
as §1

Q: For “GSLQPLALEGSLQKRGIV [C19-A3 peptide, GSLQPLALEGSLQKRGIV]”, which solubility in water (Solubility tests) is on record?
A: highly soluble

Q: For “ISQAVHAAHAEINEAGR [ovalbumin peptide, Ovalbumin 323-339 peptide, reference compound]”, which “OT-II cell accumulation and proliferation in draining LN” value [1] is on record?
A: low levels

Q: For “YVRPLWVRME [BDC-2.5 mimotope peptide, peptide that mimics the chromogranin A 342-355 peptide, reference compound]”, which “accumulation of proliferating indicator cells in draining LN, distant LNs and spleen” value (BDC-2.5 CD4+ T cells; 3 days after injection) is on record?
A: modest accumulation of proliferating indicator cells

Q: With “ovalbumin (323-339) GNPs: ovalbumin (323-339) peptide GNPs” as the molecule, how does the “fluorescent cells accumulated in the LN” value [2] read?
A: reduced numbers of fluorescent cells

B1: soluble IL-10: Human recombinant IL-10, not bound to nanoparticles (protein, UniProt P22301 19-178, looked up)
Interleukin-10: SPGQGTQSENSCTHFPGNLPNMLRDLRDAFSRVKTFFQMKDQLDNLLLKESLLEDFKGYLGCQALSEMIQFYLEEVMPQAENQDPDIKAHVNSLGENLKTLRLRLRRCHRFLPCENKSKAVEQVKNAFNKLQEKGIYKAMSEFDIFINYIEAYMTMKIRN
Q: For B1, which “effect of IL-10 on proliferation of indicator T cells” value (BDC-2.5 CD4+ T cells; preliminary in vivo experiment, IL-10 at the same concentration) is on record?
A: no effect of proliferation

Q: What about the “maturation of DCs upon LPS (phenotype)” value [3] of the same molecule?
A: immature phenotype

Q: And the “pro-inflammatory cytokine production (IL-12 and TNF)” value ([4]; LPS-treated DCs)?
A: reduced pro-inflammatory cytokine production

Q: And the “release of IL-10 in the culture” value ([4]; final IL-10 concentration 100 pg/ml)?
A: significantly higher release of IL-10
